Results from ChEMBL document CHEMBL2074132, “Functional characterization of the hepatic sodium-dependent taurocholate transporter stably transfected into an immortalized liver-derived cell line and V79 fibroblasts” (Eur J Cell Biol, 1996).

Assays:
Type in all cases: functional, cell-based
[1] = target: T1, Hepatic sodium/bile acid cotransporter (Rattus norvegicus, UniProt P26435); assay: TP_TRANSPORTER: uptake in Ntcp-expressing HPCT-1E3 cells
T1 sequence (P26435 whole entry): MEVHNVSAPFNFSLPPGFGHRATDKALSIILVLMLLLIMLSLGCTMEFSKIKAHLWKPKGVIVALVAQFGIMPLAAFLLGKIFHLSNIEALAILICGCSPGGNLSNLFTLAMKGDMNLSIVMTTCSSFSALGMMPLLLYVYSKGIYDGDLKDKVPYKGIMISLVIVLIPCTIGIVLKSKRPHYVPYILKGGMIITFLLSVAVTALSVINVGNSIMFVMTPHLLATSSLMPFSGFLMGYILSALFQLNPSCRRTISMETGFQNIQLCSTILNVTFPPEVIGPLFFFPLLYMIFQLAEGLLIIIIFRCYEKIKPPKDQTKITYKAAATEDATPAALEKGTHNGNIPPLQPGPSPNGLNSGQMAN

[2] = target: T1, Hepatic sodium/bile acid cotransporter; assay: TP_TRANSPORTER: inhibition of Taurocholate uptake (Taurocholate: 10 uM, Oligomycin: 0.01mg/mL) in Ntcp-expressing HPCT-1E3 cells
[3] = target: T1, Hepatic sodium/bile acid cotransporter; assay: TP_TRANSPORTER: inhibition of Taurocholate uptake (Taurocholate: 10 uM, GC: 100 uM) in Ntcp-expressing HPCT-1E3 cells; conditions: hpct-1e3, 100 µM

| SMILES | Activity [1] | Activity [2] | Activity [3] |
| --- | --- | --- | --- |
| CCCCNc1cc(C(=O)O)cc(S(N)(=O)=O)c1Oc1ccccc1 [BUMETANIDE] | is not a substrate [-] |  |  |
| CC[C@H]1/C=C/C=C/C[C@@H](C)[C@H](O)[C@@](C)(O)C(=O)[C@@H](C)[C@H](O)[C@@H](C)C(=O)[C@@H](C)[C@H](O)[C@@H](C)/C=C/C(=O)O[C@@H]2[C@H](C)[C@H](CC1)O[C@]1(CC[C@H](C)[C@H](C[C@@H](C)O)O1)[C@H]2C [OLIGOMYCIN] |  | inhibitor [(at a rough estimate) 10 % of control] |  |
| C[C@H](CCC(=O)NCC(=O)O)[C@H]1CC[C@H]2[C@@H]3[C@H](O)C[C@@H]4C[C@H](O)CC[C@]4(C)[C@H]3C[C@H](O)[C@]12C [GLYCOCHOLIC ACID] | is not a substrate [-] |  | inhibitor [(at a rough estimate) 60 % of control] |
